Target: HPK1 kinase (Homo sapiens, UniProt Q92918)
Assay: Lantha screen assay, inhibitory effect on HPK1 kinase
Type: biochemical
Settings: initial compound concentration 1 µM
Protocol: The Lantha screen assay is used to evaluate the inhibitory effect of the compounds on HPK1 kinase. • a) Kinase buffer: 50 mM HEPES (pH 7.5), 10 mM MgCl2, 4 mM DTT, 0.01% Tween-20, 0.01% BSA. • b) Compound Preparation: The compound is diluted with DMSO, and the initial detection concentration of the compound is 1 µM and is diluted to the corresponding concentration. • c) Kinase response and termination: A kinase solution is prepared by adding kinase buffer, the kinase solution and the compound are added to the test plate to be incubated at room temperature for 10 minutes. Fluorescein-PKC and ATP are added to the kinase buffer to form a substrate solution, and 5 µl of the substrate solution is added to the test plate to start the reaction to be incubated at room temperature for 90 minutes; then, 10 µl of a mixture of antibody and EDTA is added to terminate the reaction to be incubated at room temperature for 60 minutes. • d) The date is read by Envision instrument to plot a curve with the Log concentration of the inhibitor as the X-axis and the inhibition rate as the Y-axis, and then the formula Y=Bottom + (Top-Bottom)/(1+(IC50/X)^HillSlope) is used to obtain IC50. Table 1 Inhibitory activity the compounds of the invention on HPK1 kinase

Sequence of HPK1 kinase (Q92918 whole entry): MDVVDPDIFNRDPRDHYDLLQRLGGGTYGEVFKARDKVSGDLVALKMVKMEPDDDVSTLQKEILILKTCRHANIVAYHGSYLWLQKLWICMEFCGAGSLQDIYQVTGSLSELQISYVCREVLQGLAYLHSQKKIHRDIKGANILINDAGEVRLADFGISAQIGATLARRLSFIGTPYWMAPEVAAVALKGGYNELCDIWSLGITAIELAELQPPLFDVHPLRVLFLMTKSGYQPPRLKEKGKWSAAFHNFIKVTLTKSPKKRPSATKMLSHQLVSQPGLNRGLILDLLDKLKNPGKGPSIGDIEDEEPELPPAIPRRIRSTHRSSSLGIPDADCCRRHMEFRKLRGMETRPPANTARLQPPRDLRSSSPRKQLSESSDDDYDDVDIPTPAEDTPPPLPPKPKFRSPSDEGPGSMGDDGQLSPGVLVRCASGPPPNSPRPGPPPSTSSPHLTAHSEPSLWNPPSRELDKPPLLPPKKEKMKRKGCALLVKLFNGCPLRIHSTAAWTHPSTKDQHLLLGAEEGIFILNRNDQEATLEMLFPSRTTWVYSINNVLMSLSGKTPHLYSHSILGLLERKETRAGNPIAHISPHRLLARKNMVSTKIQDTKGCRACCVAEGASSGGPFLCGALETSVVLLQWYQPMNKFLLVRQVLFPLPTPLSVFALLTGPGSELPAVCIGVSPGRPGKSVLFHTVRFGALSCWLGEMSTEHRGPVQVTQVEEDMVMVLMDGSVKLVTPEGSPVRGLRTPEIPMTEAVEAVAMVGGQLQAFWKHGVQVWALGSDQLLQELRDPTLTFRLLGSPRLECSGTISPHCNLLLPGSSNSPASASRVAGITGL

For `Cc1cc(-c2cnc3[nH]cc(-c4ccc(C(=O)N(C)C)cc4)c3n2)cc(C)c1C1=CCN(CC2CCN(c3ccc(C(=O)NC4CCC(=O)NC4=O)cc3)C2)CC1` (stereo not shown) [compound 074], the IC50 was < 10 nM.
With `Cc1cc(-c2cnc3[nH]cc(-c4ccc(C(=O)N(C)C)c5ccccc45)c3n2)cc(C)c1C1=CCN(C2CN(c3ncc(C(=O)NC4CCC(=O)NC4=O)o3)C2)CC1` (stereo not shown) [compound 064] the IC50 was < 10 nM.
`Cc1cc(-c2cnc3[nH]cc(-c4ccc(C(=O)N(C)C)cc4)c3n2)cc(C)c1C1=CCN(C2CC3(CCN(c4ccc(C5CCC(=O)NC5=O)c(F)c4)C3)C2)CC1` (stereo not shown) [compound 045] was tested, and the IC50 was < 10 nM.
In the case of `Cc1ccc(C(=O)N2CC(CN3CC=C(c4ccc(-c5cnc6[nH]cc(-c7ccc(C(=O)N(C)C)cc7)c6n5)cc4CN(C)C)CC3)C2)cc1N1CCC(=O)NC1=O` [compound 051], the IC50 is reported as < 10 nM.
`Cc1cc(-c2cnc(N)c(OCc3ccc(C(=O)N(C)C)cc3)n2)cc(C)c1C1=CCN(CC2CN(c3ccc(C(=O)NC4CCC(=O)NC4=O)cc3)C2)CC1` (stereo not shown) [compound 094] was tested, and the IC50 was < 10 nM.
With `Cc1cc(N2CC(CN3CC=C(c4c(C)cc(-c5cnc6[nH]cc(-c7ccc(N8CCOCC8)nc7)c6c5)cc4C)CC3)C2)ccc1N1CCC(=O)NC1=O` [compound 103] the IC50 was < 10 nM.
With `Cc1cc(-c2cnc3[nH]cc(-c4ccc(C(=O)N(C)C)cc4)c3n2)cc(C)c1C1=CCN(CC2CN(C(=O)c3ccc(Cl)c(N4CCC(=O)NC4=O)c3)C2)CC1` [compound 124] the IC50 was < 10 nM.
With `Cc1cc(N2CCC3(CCC(N4CC=C(c5c(C)cc(-c6cnc7[nH]cc(-c8ccc(C(=O)N(C)C)cc8)c7n6)cc5C)CC4)C3)C2)ccc1N1CCC(=O)NC1=O` (stereo not shown) [compound 017] the IC50 was < 10 nM.
With `Cc1cc(N2CC(CN3CC=C(c4c(C)cc(-c5cnc6[nH]cc(-c7cccc(C#N)c7F)c6c5)cc4C)CC3)C2)ccc1N1CCC(=O)NC1=O` [compound 101] the IC50 was < 10 nM.
For `COc1cc(N2CC(CN3CC=C(c4c(C)cc(-c5cnc6[nH]cc(-c7ccc(C(=O)N(C)C)cc7)c6n5)cc4C)CC3)C2)ccc1C(=O)NC1CCC(=O)NC1=O` (stereo not shown) [compound 059], the IC50 was < 10 nM.
In the case of `Cc1cc(N2CC(N3CC=C(c4c(C)cc(-c5cnc6[nH]cc(-c7ccc(C(=O)N(C)C)cc7)c6n5)cc4C)CC3)C2)ccc1N1CCC(=O)NC1=O` [compound 125], the IC50 is reported as < 10 nM.
For `Cc1cc(-c2cnc3[nH]cc(-c4ccc(C(=O)N(C)C)cc4)c3n2)cc(C)c1C1=CCN(C2CN(c3ccc(C4CCC(=O)NC4=O)cc3)C2)CC1` (stereo not shown) [compound 048], the IC50 was < 10 nM.
With `COc1ccc(C(=O)N2CCC(CN3CC=C(c4c(C)cc(-c5cnc6scc(-c7ccc(C(=O)N(C)C)cc7)c6n5)cc4C)CC3)C2)cc1N1CCC(=O)NC1=O` (stereo not shown) [compound 082] the IC50 was < 10 nM.
For `Cc1cc(-c2cnc3[nH]cc(-c4ccc(C(=O)N(C)C)cc4)c3n2)cc(C)c1C1=CCN(C2CN(Cc3ccc(F)c(N4CCC(=O)NC4=O)c3)C2)CC1` [compound 038], the IC50 was < 10 nM.
For `Cc1cc(-c2cnc3[nH]cc(-c4ccc(C(=O)N(C)C)cc4)c3n2)cc(C)c1C1=CCN(CC2CN(c3cccc(C4CCC(=O)NC4=O)c3)C2)CC1` (stereo not shown) [compound 025], the IC50 was < 10 nM.
`Cc1cc(-c2cnc3[nH]cc(-c4ccc(C(=O)N(C)C)cc4)c3n2)cc(C)c1C1=CCN(C2CN(C(=O)c3ccc(NC4CCC(=O)NC4=O)cc3)C2)CC1` (stereo not shown) [compound 020] was tested, and the IC50 was < 10 nM.
`Cc1cc(N2CC(CN3CC=C(c4c(C)cc(-c5cnc(N)c(Oc6ccc(C(=O)N(C)C)cc6)n5)cc4C)CC3)C2)ccc1N1CCC(=O)NC1=O` [compound 091] was tested, and the IC50 was < 10 nM.
For `Cc1cc(N2CC(CN3CC=C(c4c(C)cc(-c5cnc6[nH]cc(-c7cnn(C8CCN(C9CC9)CC8)c7)c6c5)cc4C)CC3)C2)ccc1N1CCC(=O)NC1=O` [compound 118], the IC50 was < 10 nM.
`CN(C)C(=O)c1ccc(-c2c[nH]c3ncc(-c4ccc(C5=CCN(CC6CN(c7ccc(C(=O)NC8CCC(=O)NC8=O)cc7)C6)CC5)c(C5CCCN5)c4)nc23)cc1` (stereo not shown) [compound 058] was tested, and the IC50 was < 10 nM.
In the case of `Cc1cc(N2CC(CN3CC=C(c4c(C)cc(-c5cnc6[nH]cc(-c7ccc(-c8ncco8)cc7)c6c5)cc4C)CC3)C2)ccc1N1CCC(=O)NC1=O` [compound 138], the IC50 is reported as < 10 nM.
With `Cc1cc(-c2cnc3[nH]cc(-c4ccc(C(=O)N(C)C)cc4)c3n2)cc(C)c1C1=CCN(CC2CN(c3cccc(N4CCC(=O)NC4=O)c3C)C2)CC1` [compound 027] the IC50 was < 10 nM.
`Cc1cc(-c2cnc(N)c(Oc3cnn(C4CCN(C)CC4)c3)n2)cc(C)c1C1=CCN(CC2CN(c3ccc(C4CCC(=O)NC4=O)cc3)C2)CC1` (stereo not shown) [compound 096] was tested, and the IC50 was < 10 nM.
In the case of `COc1ccc(C(=O)C2CCC(N3CC=C(c4c(C)cc(-c5cnc6[nH]cc(-c7ccc(C(=O)N(C)C)cc7)c6n5)cc4C)CC3)C2)cc1N1CCC(=O)NC1=O` (stereo not shown) [compound 044], the IC50 is reported as < 10 nM.
`Cc1cc(C2CC(CN3CC=C(c4c(C)cc(-c5cnc6[nH]cc(-c7ccc(C(=O)N(C)C)cc7)c6n5)cc4C)CC3)C2)ccc1N1CCC(=O)NC1=O` (stereo not shown) [compound 039] was tested, and the IC50 was < 10 nM.
For `Cc1cc(C(=O)N2CC(N3CC=C(c4c(C)cc(-c5cnc6[nH]cc(-c7ccc(C(=O)N(C)C)cc7)c6n5)cc4C)CC3)C2)ccc1C1CCC(=O)NC1=O` (stereo not shown) [compound 010], the IC50 was < 10 nM.
With `COCC(C)N1CCC(n2cc(-c3c[nH]c4ncc(-c5cc(C)c(C6=CCN(CC7CN(c8ccc(N9CCC(=O)NC9=O)c(C)c8)C7)CC6)c(C)c5)cc34)cn2)CC1` (stereo not shown) [compound 128] the IC50 was < 10 nM.
With `Cc1cc(-c2cnc3[nH]cc(-c4ccc(C(=O)N(C)C)cc4)c3n2)cc(C)c1C1=CCN(CC2CN(c3ccc4c(=O)n(C5CCC(=O)NC5=O)ccc4c3)C2)CC1` (stereo not shown) [compound 084] the IC50 was < 10 nM.
In the case of `Cc1cc(-c2cnc3[nH]cc(-c4ccc(C(=O)N(C)C)cc4)c3c2)cc(C)c1C1=CCN(CC2CCN(C(=O)c3ccc(Cl)c(N4CCC(=O)NC4=O)c3)CC2)CC1` [compound 126], the IC50 is reported as < 10 nM.
`COc1ccc(C(=O)N2CC(CN3CC=C(c4ncc(-c5cnc6[nH]cc(-c7ccc(C(=O)N(C)C)cc7)c6n5)cc4CN(C)C)CC3)C2)cc1N1CCC(=O)NC1=O` [compound 053] was tested, and the IC50 was < 10 nM.
In the case of `Cc1cc(-c2cnc3[nH]cc(-c4ccc(C(=O)N(C)C)cc4)c3n2)cc(C)c1C1=CCN(CC2CN(c3ccc(NC4CCC(=O)NC4=O)cc3F)C2)CC1` (stereo not shown) [compound 106], the IC50 is reported as < 10 nM.
For `Cc1cc(-c2cnc3[nH]cc(-c4cnc5[nH]ccc5c4)c3n2)cc(C)c1C1=CCN(C2CN(c3ccc(C(=O)NC4CCC(=O)NC4=O)cc3)C2)CC1` (stereo not shown) [compound 070], the IC50 was < 10 nM.
`Cc1cc(-c2cnc3[nH]cc(-c4ccc(C(=O)N(C)C)cc4)c3n2)cc(C)c1C1=CCN(CC2CN(c3cc(F)c(C4CCC(=O)NC4=O)c(F)c3)C2)CC1` (stereo not shown) [compound 002] was tested, and the IC50 was < 10 nM.
`Cc1cc(-c2cnc3[nH]cc(-c4ccc(C(=O)N(C)C)cc4)c3n2)cc(C)c1C1=CCN(CC2CN(c3ccc(NC4CCC(=O)NC4=O)cc3)C2)CC1` (stereo not shown) [compound 043] was tested, and the IC50 was < 10 nM.
With `Cc1cc(N2CC(CCN3CC=C(c4c(C)cc(-c5cnc6[nH]cc(-c7ccc(C(=O)N(C)C)cc7)c6n5)cc4C)CC3)C2)ccc1N1CCC(=O)NC1=O` [compound 127] the IC50 was < 10 nM.
For `Cc1cc(-c2cnc3[nH]cc(-c4ccc(C(=O)N(C)C)cc4)c3n2)cc(C)c1C1=CCN(CC2CCN(C(=O)c3ccc(Cl)c(N4CCC(=O)NC4=O)c3)CC2)CC1` [compound 120], the IC50 was < 10 nM.
With `Cc1cc(-c2cnc3[nH]cc(-c4ccc(C(=O)N(C)C)cn4)c3n2)cc(C)c1C1=CCN(CC2CN(c3ccc(C(=O)NC4CCC(=O)NC4=O)cc3)C2)CC1` (stereo not shown) [compound 031] the IC50 was < 10 nM.
With `Cc1cc(-c2cnc3[nH]cc(-c4ccc(C(=O)N(C)C)cc4)c3n2)cc(C)c1C1=CCN(C(=O)CCc2cc(F)c(N3CCC(=O)NC3=O)c(F)c2)CC1` [compound 047] the IC50 was < 10 nM.
`CNc1cc(-c2cnc3[nH]cc(-c4ccc(C(=O)N(C)C)cc4)c3n2)ccc1C1=CCN(CC2CN(c3ccc(N4CCC(=O)NC4=O)c(C)c3)C2)CC1` [compound 131] was tested, and the IC50 was < 10 nM.
For `Cc1cc(-c2cnc3[nH]cc(-c4ccc(C(=O)N(C)C)cc4)c3n2)cc(C)c1C1=CCN(C2CN(c3ccc(C(=O)NC4CCC(=O)NC4=O)cc3)C2)CC1` (stereo not shown) [compound 005], the IC50 was < 10 nM.
With `Cc1cc(-c2cnc3[nH]nc(-c4ccc(C(=O)N(C)C)cc4)c3c2)cc(C)c1C1=CCN(C2CCN(c3ccc(C(=O)NC4CCC(=O)NC4=O)cn3)CC2)CC1` (stereo not shown) [compound 080] the IC50 was < 10 nM.
In the case of `Cc1cc(-c2cnc3[nH]cc(-c4ccc5c(c4)C(C)(C)OC5=O)c3n2)cc(C)c1C1=CCN(C2CN(c3ccc(C4CCC(=O)NC4=O)cc3)C2)CC1` (stereo not shown) [compound 066], the IC50 is reported as < 10 nM.
For `Cc1cc(-c2cnc3[nH]nc(-c4ccc(C(=O)N(C)C)cc4)c3c2)cc(C)c1C1=CCN(CC2CN(c3ncc(C(=O)NC4CCC(=O)NC4=O)o3)C2)CC1` (stereo not shown) [compound 077], the IC50 was < 10 nM.
With `Cc1cc(-c2cnc3[nH]cc(-c4ccc(C(=O)N(C)C)cc4)c3n2)cc(C)c1C1=CCN(CC(=O)Cc2ccc(C3CCC(=O)NC3=O)c(F)c2)CC1` (stereo not shown) [compound 006] the IC50 was < 10 nM.
For `Cc1cc(N2CC3CC(N4CC=C(c5c(C)cc(-c6cnc7[nH]cc(-c8ccc(C(=O)N(C)C)cc8)c7c6)cc5C)CC4)CC3C2)ccc1N1CCC(=O)NC1=O` (stereo not shown) [compound 115], the IC50 was < 10 nM.
`Cc1cc(-c2cnc3[nH]cc(-c4ccc(C(=O)N(C)C)cc4)c3n2)cc(C)c1C1=CCN(CC2CN(C3=CC(=O)N(C4CCC(=O)NC4=O)C3=O)C2)CC1` (stereo not shown) [compound 088] was tested, and the IC50 was < 10 nM.
With `Cc1cc(-c2cnc3[nH]cc(-c4ccc(C(=O)N(C)C[C@H](C)O)cc4)c3n2)cc(C)c1C1=CCN(CC2CN(c3ccc(C(=O)NC4CCC(=O)NC4=O)cc3)C2)CC1` (stereo partly shown) [compound 032] the IC50 was < 10 nM.

From patent EP4813992A1, “POLYARYL DERIVATIVE AND USE THEREOF” (Hangzhou HealZen Therapeutics Co., Ltd., priority 2023, dated 2025)
